Test results published in patent US11384066B1, “Heterocyclic compounds useful as aurora a selective inhibitors” (Jacobio Pharmaceuticals Co., Ltd., priority 2020, dated 2022).
Read-outs that look alike come from different tables or passages of the source.

Legend:
Aurora B = Aurora B (Homo sapiens (Human), UniProt Q96GD4); test: Aurora B kinase assay (mobility shift assay); assay type: biochemical; conditions: ratio of Aurora B IC50 to Aurora A IC50
Experimental: (§1) Example A: Evaluation of Aurora a and Aurora B Inhibitory Effect—Kinase Assay
(§2) The inhibitory activities of a test compound against Aurora A and Aurora B were measured according to the following method.
(§3) The IC50 value of Aurora A and Aurora B kinase was performed by Sundia MediTech Co. Ltd. using Mobility shift assay.
(§4) • (1) Prepare a 1× kinase buffer [50 mM 4-(2-hydroxyethyl)-1-piperazineethanesulfonic acid (HEPES), PH 7.5, 0.01% Brij-35, 10 mM MgCl2, 2 mM dithiothreitol (DTT)]. • (2) Prepare compound:
(§5) The testing compound was dissolved with DMSO. The testing compound was diluted up to 100× final concentration in a 384-well plate. Transfer 250 nL of the compound dilution to a 384-well assay plate using Echo 550. 100% DMSO of 250 nL was added to the negative control well and the positive control well. • (3) Prepare a 2.5× enzyme solution using the above 1× kinase buffer. • (4) Add 10 μL of the 2.5× enzyme solution to the compound well and the positive control well of the 384-well assay plate. Add 10 μL of the 1× kinase buffer to the negative control well. • (5) The 384-well plate was centrifuged at 1000 rpm for 30 seconds and incubated at room temperature for 10 min. • (6) A mixture of ATP and Kinase substrate 21 with a final concentration of 25/15× was prepared by the 1× kinase buffer. • (7) Add 15 μL of the mixture of 25/15×ATP and kinase substrate solution 21 to start reaction. • (8) The 384-well plate was centrifuged at 1000 rpm for 30 seconds and incubated at room temperature. • (9) 30 μL of the stop and detection buffer was added to stop the kinase reaction and centrifuged at 1000 rpm for 30 seconds. • (10) Collect data on Caliper EZ ReaderII. Data Analysis:
(§6) Conversion %_sample is conversion rate data of samples. Conversion %_min is mean value of negative control (conversion rate data without enzyme activation). Conversion %_max is mean positive control (conversion rate data without compound).
(§7) The log of concentration is on the X axis, and the percentage inhibition is on the Y axis. Fit the Quantitative effect curves with log (inhibitor) vs. response—Variable slope in GraphPad Prism5 obtain IC50 values. Equation used is Y=Bottom+(Top−Bottom)/(1+10^((Log IC50−X)*HillSlope)).

[1] = tested on: NCI-H446 human small cell lung cancer xenograft; test: In vivo anti-tumor efficacy, NCI-H446 xenograft model; parameters: species or system BALB/c nude mice; conditions: 15 mg/kg po., BID × 10days, QD × 19days, treatment 29 days, Table C does not say which xenograft (NCI-H446 or NCI-H69); for TV (mm^3): mean ± sem
Experimental: This study is to examine the anti-tumor efficacy of test compounds in NCI-H446 and NCI-H69 human small cell lung cancer xenograft model in BALB/c nude mice. Each mouse was inoculated subcutaneously at the right flank region with NCI-H446 (3×10^6) and NCI-H69 cells (5×10^6) in 0.1 mL of PBS and Matrigel (1:1) for tumor development. The mouse were randomized according to tumor size and weight, the treatment began when the mean tumor size reached 100-200 mm^3. Anti-tumor activity was assessed according to relative tumor inhibition rate (TGI).
Tumor volumes were measured in two dimensions using a caliper, and the volume was expressed in mm^3 using the formula: V=0.5 a×b^2 where a and b are the long and short diameters of the tumor, respectively. Statistical analysis of difference in tumor volume among the groups were performed using one-way ANOVA. All data was analyzed using SPSS 22.0 software, p<0.05 was considered to be statistically significant.

PK in rat = assay type: in vivo; conditions: SD male rats; for Vd: read-out: Vss
Experimental: The compounds were dissolved into 10% DMSO, 30% PEG400, and 60% saline to obtain a solution. SD male rats were given the compound orally and intravenously. Then plasma samples were collected at 0 hour (pre-dose), 0.25, 0.5, 1, 2, 4, 7, 24 hours post-dose. Plasma drug concentration was detected by LC-MS/MS. Pharmacokinetic parameters were calculated using WinNonlin's software with non-compartmental model.

NCI-H446 cells = test: Cell proliferation assay (CellTiter-Glo), NCI-H446; assay type: cell-based; conditions: Homo sapiens, NCI-H446, 120 h, 5 days
Experimental: (§8) Example B: Cell Proliferation Assay
(§9) NCI-H2171 and NCI-H446 cell proliferation analysis were conducted by CellTiter-Glo (Promega, Cat #G1111). The cells will be harvested respectively during the logarithmic growth period and counted with hemocytometer. […] Adjust NCI-H2171 and NCI-H446 cells concentrations to 1.0×10^5 cells/mL with complete medium (RPMI-1640 medium supplemented with 10% (v/v) fetal bovine serum). 100 μL/cell suspensions were added to 96-well plates, and the final cell densities were 1.0×10^4 cells/well. The plate will be cultured overnight in 5% CO2 and 95% humidity at 37° C. The next day, the test compound was dissolved in DMSO as stock solution. Then the different concentrations of compound were added into 96-well plates. The plates will be cultured for 5 days, then measured by means of CellTiter-Glo assay. 50 μL/cell CellTiter-Glo reagent was added into 96-well plates. Shock incubation for 5 min and then stand incubation for 10 min at room temperature. Record the Luminosity values using an microplate spectrophotometer (Spark, Tecan). Fit the data using GraphPad 8.0 and obtain IC50 values.
(§10) Formula: Survival (%)=(Lumtest−Lummedia control)/(Lumcell control−Lummedia control)×100%

NCI-H2171 cells = test: Cell proliferation assay (CellTiter-Glo), NCI-H2171; assay type: cell-based; conditions: Homo sapiens, NCI-H2171, 120 h, 5 days
Experimental: as §8, §9, §10

Aurora A = Aurora A (Homo sapiens (Human), UniProt O14965); test: Aurora A kinase assay (mobility shift assay); assay type: biochemical
Experimental: as §1, §2, §3, §4, §5, §6, §7

[2] = rat, plasma, PO: 10 mg/kg vs IV: 3 mg/kg
[3] = rat, plasma, PO: 10 mg/kg, read-out: Cmax

Chain of Aurora A (O14965 whole entry): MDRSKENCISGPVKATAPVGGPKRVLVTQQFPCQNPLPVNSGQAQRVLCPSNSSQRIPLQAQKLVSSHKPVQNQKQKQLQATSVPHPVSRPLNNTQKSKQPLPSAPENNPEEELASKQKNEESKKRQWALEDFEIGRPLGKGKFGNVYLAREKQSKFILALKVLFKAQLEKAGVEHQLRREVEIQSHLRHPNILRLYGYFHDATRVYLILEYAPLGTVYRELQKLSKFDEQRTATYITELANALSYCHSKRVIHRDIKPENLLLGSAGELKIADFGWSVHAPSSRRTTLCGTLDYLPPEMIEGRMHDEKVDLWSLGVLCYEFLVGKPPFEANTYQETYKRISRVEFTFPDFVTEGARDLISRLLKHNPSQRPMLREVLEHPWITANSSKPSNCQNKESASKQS
Chain of Aurora B (Q96GD4 whole entry): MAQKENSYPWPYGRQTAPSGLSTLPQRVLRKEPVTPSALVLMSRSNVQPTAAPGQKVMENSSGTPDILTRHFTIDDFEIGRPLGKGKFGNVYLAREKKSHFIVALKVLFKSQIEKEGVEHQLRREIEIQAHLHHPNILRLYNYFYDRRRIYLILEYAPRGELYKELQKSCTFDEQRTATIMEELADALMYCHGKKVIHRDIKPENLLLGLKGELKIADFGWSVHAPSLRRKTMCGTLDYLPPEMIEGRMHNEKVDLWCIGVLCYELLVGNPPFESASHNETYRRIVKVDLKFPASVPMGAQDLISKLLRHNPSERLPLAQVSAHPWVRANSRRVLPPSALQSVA

Compound	IC50 Ratio Aur B/Aur A (Aurora B)	TGITV(%) [1] [%]	TV (mm^3) [1] [mm^3]	clearance (PK in rat; rat, plasma, IV: 3 mg/kg) [mL/min/kg]	Vd (PK in rat; rat, plasma, IV: 3 mg/kg) [L/kg]	AUC(0-t) (PK in rat; rat, plasma, PO: 10 mg/kg) [µg·h/mL]	half-life (PK in rat; rat, plasma, PO: 10 mg/kg) [h]	bioavailability (PK in rat; [2]) [%]	Cmax (PK in rat; [3]) [ng/mL]	IC50 (NCI-H446 cells) [nM]	IC50 (NCI-H2171 cells) [nM]	IC50 (Aurora A) [nM]	CL (PK in rat; IV: 3 mg/kg) [mL/min/kg]	Vss (PK in rat; IV: 3 mg/kg) [L/kg]	AUClast (PK in rat; PO: 10 mg/kg) [µg·h/mL]	Cmax (PK in rat; PO: 10 mg/kg) [ng/mL]	t1/2 (PK in rat; PO: 10 mg/kg) [h]	F% (PK in rat; PO: 10 mg/kg vs IV: 3 mg/kg) [%]
Cc1cc(Nc2nc(C[C@@]3(C(=O)O)CCN(Cc4cccc(Cl)c4F)[C@H](C)C3)ccc2F)[nH]n1 [Example 5, (2R,4R)-1-(3-chloro-2-fluorobenzyl)-4-((5-fluoro-6-((3-methyl-1H-pyrazol-5-yl)amino)pyridin-2-yl)methyl)-2-methylpiperidine-4-carboxylic acid]	1311	98	27 ± 5	2.74	0.56	179	4.25	168	26600	80	30	0.59						
Cc1cc(Nc2ccc(F)c(C[C@@]3(C(=O)O)CCN(Cc4c(F)ccc(Cl)c4F)[C@H](C)C3)n2)n[nH]1 [Example 6, (2R,4R)-1-(3-chloro-2,6-difluorobenzyl)-4-((3-fluoro-6-((5-methyl-1H-pyrazol-3-yl)amino)pyridin-2-yl)methyl)-2-methylpiperidine-4-carboxylic acid]	6112			0.67	0.18	215	6.3	86	34900	103	55	0.33						
CC[C@@H]1C[C@](Cc2nc(Nc3cc(C)[nH]n3)ccc2F)(C(=O)O)CCN1Cc1cccc(Cl)c1F [Example 8, (2R,4R)-1-(3-chloro-2-fluorobenzyl)-2-ethyl-4-((3-fluoro-6-((5-methyl-1H-pyrazol-3-yl)amino)pyridin-2-yl)methyl) piperidine-4-carboxylic acid]	1288									119	75	1.2						
Cc1cc(Nc2cc(F)cc(C[C@@]3(C(=O)O)CCN(Cc4cccc(Cl)c4F)[C@H](C)C3)n2)n[nH]1 [Example 30, (2R,4R)-1-(3-chloro-2-fluorobenzyl)-4-((4-fluoro-6-((5-methyl-1H-pyrazol-3-yl)amino)pyridin-2-yl)methyl)-2-methylpiperidine-4-carboxylic acid]										128	62							
Cc1cc(Nc2cc(C)c(F)c(C[C@@]3(C(=O)O)CCN(Cc4cccc(Cl)c4F)[C@H](C)C3)n2)n[nH]1 [Example 49, (2R,4R)-1-(3-chloro-2-fluorobenzyl)-4-((3-fluoro-4-methyl-6-((5-methyl-1H-pyraz-ol-3-yl)amino)pyridin-2-yl)methyl)-2-methylpiperidine-4-carboxylic acid]	443	90	160 ± 26	1.05	0.22	202	2.95	127	21000	24	18	0.7						
Cc1cc(Nc2cc(C)c(F)c(C[C@@]3(C(=O)O)CCN(Cc4c(F)ccc(Cl)c4F)[C@H](C)C3)n2)n[nH]1 [Example 50, (2R,4R)-1-(3-chloro-2,6-di-fluorobenzyl)-4-((3-fluoro-4-methyl-6-((5-methyl-1H-pyra-zol-3-yl)amino)pyridin-2-yl)-methyl)-2-methylpiperidine-4-carboxylic acid]	845			1.45	0.26	173	3.62	140	16100	73	25	0.52						
Cc1cc(Nc2cc(C)c(F)c(C[C@@]3(C(=O)O)CCN(Cc4cccc(Cl)c4Cl)[C@H](C)C3)n2)n[nH]1 [Example 53, (2R,4R)-1-(2,3-dichloro-benzyl)-4-((3-fluoro-4-methyl-6-((5-methyl-1H-pyrazol-3-yl)-amino)pyridin-2-yl)methyl)-2-methylpiperidine-4-carboxylic acid]	562									154	57	0.55						
CC(=O)c1cc(Nc2cc(C)[nH]n2)nc(CC2(C(=O)O)CCN(Cc3cccc(Cl)c3F)CC2)c1F [Example 69, 4-((4-acetyl-3-fluoro-6-((5-methyl-1H-pyrazol-3-yl)-amino)pyridin-2-yl)methyl)-1-(3-chloro-2-fluorobenzyl)-piperidine-4-carboxylic acid]										87	41							
Cc1cc(Nc2cc(Cl)c(F)c(C[C@@]3(C(=O)O)CCN(Cc4cccc(Cl)c4F)[C@H](C)C3)n2)n[nH]1 [Example 72, (2R,4R)-1-(3-chloro-2-fluorobenzyl)-4-((4-chloro-3-fluoro-6-((5-methyl-1H-pyrazol-3-yl)amino)pyridin-2-yl)methyl)-2-methylpiperidine-4-carboxylic acid]	582	89	176 ± 25							56	23	0.64						
Cc1cc(Nc2nc(C[C@@]3(C(=O)O)CCN(Cc4cccc(Cl)c4F)[C@H](C)C3)cc(Cl)c2F)n[nH]1 [Example 73, (2R,4R)-1-(3-chloro-2-fluorobenzyl)-4-((4-chloro-5-fluoro-6-((5-methyl-1H-pyrazol-3-yl)amino)pyridin-2-yl)methyl)-2-methylpiperidine-4-carboxylic acid]	779									63	27	0.76						
Cc1cc(Nc2ccc(F)c(C[C@@]3(C(=O)O)CCN(Cc4cccc(Cl)c4F)[C@H](C)C3)n2)n[nH]1 [LY3295668, reference compound]													1.52	0.29	91.211	15033	3.37	81
